This is an account of results in publication doi:10.1101/2025.07.09.663793, “Activating and inhibiting nucleotide signals coordinate bacterial anti-phage defense” (bioRxiv, 2025).

For experiment [1], the target named is Shewanella putrefaciens CN-32 dGTPase (Shewanella putrefaciens CN-32). The experiment is described as follows: crystal structure; SpdGTPase at 10 mg/mL in 20 mM HEPES-KOH pH 7.5, 100 mM KCl; hanging drop, 18°C; reservoir 0.2 M magnesium chloride, 0.1 M HEPES-NaOH pH 7.5, 30% PEG-400.
Experiment [2] deals with T1, CloA (SeCloA).
T1 construct: wild-type CloA
The experiment is described as follows: inhibition of purified CloA dGTPase, phosphate release (malachite green). Type of experiment: biochemical, Salmonella enterica.

For experiment [3], the target named is Salmonella enterica SA20044414 Clover protein A (CloA), wild type (Salmonella enterica SA20044414). Briefly: cryo-EM structure; apo Salmonella CloA, 1 mg/mL, vitrified at 4°C; C4 symmetry.
In experiment [4] the target is T1, CloA (SeCloA). Briefly: activation of purified CloA dGTPase, phosphate release and LC-MS. Type of experiment: biochemical, Salmonella enterica.
Experiment [5] deals with T2, CloA (SeCloA) (Salmonella enterica, UniProt A0A5H6DAK1, H126A/E129A).
T2 construct: gene dgt; CloA^HEAA, octamer
The experiment is described as follows: […] Å cryo-EM structure of CloA–dGTP–dTTP. Type of experiment: binding.

The target of experiment [6] is T3, CloA (SeCloA).
T3 construct: full-length CloA from S. enterica SA20044414, octamer
Briefly: […] Å cryo-EM of CloA co-expressed with CloB; LC-MS of released ligand; dGTPase inhibition (malachite green). Type of experiment: biochemical, Salmonella enterica.

A word on the stoichiometry N: it is the number of molecules, sites or subunits per partner or assembly. In general, IC50 refers to the concentration that gives 50% inhibition. The term EC50 denotes the midpoint of the concentration-response curve. The low end stands for an effect from little substance, the high end for a need for much substance.

In turn, “Shewanella putrefaciens CN-32 dGTPase (enzyme)” registered a stoichiometry N in experiment [1] of 6.
As to `Cc1cn([C@H]2C[C@H](OP(=O)(O)OC[C@H]3O[C@@H](n4cc(C)c(=O)[nH]c4=O)C[C@@H]3O)[C@@H](COP(=O)(O)OP(=O)(O)O)O2)c(=O)[nH]c1=O` [p2diT], in experiment [2], the IC50 is ~20.9 µM.
With “Salmonella enterica SA20044414 Clover protein A (CloA), wild type (enzyme)”, the stoichiometry N in experiment [3] was 8.
As to `Cc1cn([C@H]2C[C@H](O)[C@@H](COP(=O)(O)OP(=O)(O)OP(=O)(O)O)O2)c(=O)[nH]c1=O` [dTTP], in experiment [4], the EC50 was ~15 µM. Besides, the “2.6 Å cryo-EM structure of CloA-dGTP-dTTP” value in experiment [5] is “In the CloA–dGTP–dTTP active state structure, dTTP is bound at the CloAAB interface in an adjacent pocket”.
`Cc1cn([C@H]2C[C@H](OP(=O)(O)OC[C@H]3O[C@@H](n4cc(C)c(=O)[nH]c4=O)C[C@@H]3O)[C@@H](COP(=O)(O)OP(=O)(O)OP(=O)(O)O)O2)c(=O)[nH]c1=O` [p3diT, 5′-triphosphothymidyl-3′5′-thymidine]: the IC50 in experiment [6] is ~7.6 µM.
